Molecules are shown by their SMILES. Activity calls are given as the source filed them. For most assays here, no stated cut-off is given here; in the data, actives have a measured EC50 and inactives only a lower limit. A value given as a limit tells only on which side of the number the result lay.

By AC50 is commonly meant the midpoint of the concentration-response curve, whichever way the signal moves. One may read the CC50 as the concentration at which the toxic effect on the cells reaches its halfway point.

A short description of experiment [1]: C. albicans growth with fluconazole, confirmation, fluorescence, retest (AID 2467). It is filed as functional, cell-based.
Experiment [2] can be described thus: NIH-3T3 fibroblast cytotoxicity, dose response, cytotoxicity control, cell-based, fluorescence, Alamar Blue, secondary assay (AID 2327).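 Further: NIH-3T3 mouse fibroblasts cultured with fluconazole at 8 µg/mL.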 The experiment is classed as functional. (The colour change of resazurin is a common sign of viable cells or microbes.)
The test system of the next experiment is INS1. Briefly: beta cell apoptosis inhibitors, cytokine rescue, dose response, luminescence, retest (AID 449756).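 Further: cell death triggered by IL-1 beta plus TNF-alpha plus IFN-gamma mixture; protective hits raise ATP signal compared with cytokine alone wells.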 The experiment is classed as functional, cell-based. The settings on record: Rattus norvegicus.
The nature of another experiment: cells. It is filed as functional.
In experiment [3] the target is T1, Carboxy-terminal domain RNA polymerase II polypeptide A small phosphatase 1 (Homo sapiens, UniProt Q9GZU7).
T1 sequence (Q9GZU7 whole entry): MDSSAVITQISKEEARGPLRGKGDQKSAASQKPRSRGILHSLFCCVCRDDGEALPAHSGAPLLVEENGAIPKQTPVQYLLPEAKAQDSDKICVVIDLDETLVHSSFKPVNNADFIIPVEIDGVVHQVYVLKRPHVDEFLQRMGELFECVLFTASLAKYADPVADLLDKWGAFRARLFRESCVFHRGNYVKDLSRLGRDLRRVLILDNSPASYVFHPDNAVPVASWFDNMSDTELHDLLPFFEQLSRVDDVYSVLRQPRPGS
Description: inhibitors of CTDSP1, concentration-response testing, biochemical assay, absorbance-based, actives from ultra-high-throughput screening (AID 540297). The experiment is classed as functional.

Experiment [4] is described as follows: inhibitors of intracellular T. cruzi replication, confirmation, NIH3T3 host cells, beta-gal luminescence (AID 2044).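 Further: intracellular parasites grown in NIH/3T3 mouse fibroblasts as host cells; luminescent beta-galactosidase reporter signal from transgenic T. cruzi replicating inside host cells; inhibitors lower the luminescence signal.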 The experiment is classed as functional, cell-based.
A short description of experiment [5]: cytotoxicity toward NIH3T3 fibroblasts, dose response, counter-screen, cell-based, ATP luminescence, mouse fibroblasts (AID 2010).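 Further: cells exposed to compound for about 90 hours before reading.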 It is filed as functional. (In general: Counterscreens check selectivity or assay interference.)
The target of a further experiment is T2, Streptokinase A (Streptococcus pyogenes serotype M1, UniProt P10520).
T2 sequence (P10520 whole entry): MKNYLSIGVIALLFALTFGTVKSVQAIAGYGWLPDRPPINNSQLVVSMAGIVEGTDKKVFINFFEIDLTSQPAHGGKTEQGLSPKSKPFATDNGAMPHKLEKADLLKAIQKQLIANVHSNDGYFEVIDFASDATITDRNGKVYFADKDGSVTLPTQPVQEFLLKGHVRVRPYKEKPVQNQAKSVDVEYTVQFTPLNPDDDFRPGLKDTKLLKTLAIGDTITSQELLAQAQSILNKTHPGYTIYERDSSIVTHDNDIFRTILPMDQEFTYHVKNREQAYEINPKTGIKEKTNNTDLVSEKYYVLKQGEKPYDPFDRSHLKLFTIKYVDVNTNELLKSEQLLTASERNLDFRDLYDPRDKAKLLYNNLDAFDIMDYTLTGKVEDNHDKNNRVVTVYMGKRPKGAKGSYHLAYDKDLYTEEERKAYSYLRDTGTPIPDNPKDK
Description: S. pyogenes streptokinase expression inhibitors, potency, dose response, plasminogen activation absorbance, OD405 (AID 1914).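 Further: secreted streptokinase activity via plasminogen activation per viability signal from cell pellet.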 The experiment is classed as functional, Streptococcus pyogenes M1 GAS.

Another experiment relates to Streptococcus. Description: Group A Streptococcus viability loss, dose response, counter-screen for streptokinase expression inhibitor project, luminescence, BacTiterGlo (AID 1915).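 Further: potency for reduction of bacterial viability or growth.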 The experiment is classed as functional, organism-based.
Experiment [6] can be described thus: HEp-2 cell cytotoxicity, dose response, cytotoxicity control for RSV inhibitor project, HTS (AID 2410). It is filed as functional. The settings on record: human respiratory syncytial virus.
Experiment [7] has as its system Streptococcus sp. 'group A'. Description: growth inhibition of control SK(-) GAS strain, dose response, counter-screen for streptokinase expression inhibitor project, luminescence, kanamycin, BacTiterGlo, confirmation (AID 1900). It is filed as functional, organism-based.
Experiment [8] deals with T3, Corticotropin-releasing factor receptor 2/Corticotropin-releasing factor-binding protein (Homo sapiens, UniProt P24387+Q13324).
T3 sequence (Q13324 whole entry): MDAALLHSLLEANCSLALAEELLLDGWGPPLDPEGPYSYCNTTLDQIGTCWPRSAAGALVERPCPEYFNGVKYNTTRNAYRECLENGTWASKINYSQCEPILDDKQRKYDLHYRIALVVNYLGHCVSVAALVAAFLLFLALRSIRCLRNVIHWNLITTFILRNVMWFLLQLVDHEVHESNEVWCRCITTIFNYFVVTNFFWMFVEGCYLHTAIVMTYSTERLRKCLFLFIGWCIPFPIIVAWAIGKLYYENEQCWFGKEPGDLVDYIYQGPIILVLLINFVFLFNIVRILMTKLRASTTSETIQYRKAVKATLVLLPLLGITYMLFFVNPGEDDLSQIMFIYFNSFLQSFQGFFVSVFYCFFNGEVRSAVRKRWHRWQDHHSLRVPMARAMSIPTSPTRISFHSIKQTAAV
T3 sequence (P24387 whole entry): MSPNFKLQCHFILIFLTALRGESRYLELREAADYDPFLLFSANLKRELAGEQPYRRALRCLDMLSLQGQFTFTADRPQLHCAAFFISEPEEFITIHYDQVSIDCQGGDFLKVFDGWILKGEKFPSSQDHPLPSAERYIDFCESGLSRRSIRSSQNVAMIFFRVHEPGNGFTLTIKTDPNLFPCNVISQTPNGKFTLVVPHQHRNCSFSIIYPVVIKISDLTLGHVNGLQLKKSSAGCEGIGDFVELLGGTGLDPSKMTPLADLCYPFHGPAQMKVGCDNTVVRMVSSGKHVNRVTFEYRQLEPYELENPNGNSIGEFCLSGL
Briefly: Dose Response confirmation of uHTS hits for small molecule antagonists of the CRF-binding protein and CRF-R2 receptor complex. The experiment is classed as functional. As to conditions: read-out: IC50_Mean.

Experiment [9] has as its target T3, Corticotropin-releasing factor receptor 2/Corticotropin-releasing factor-binding protein. Briefly: activators of CRF receptor 2 with binding protein – uHTS hits, confirmation (AID 602473). The experiment is classed as functional. The settings on record: read-out: EC50_Mean.

As for `CCn1c(N=NO)nc2ccccc21`, the EC50 in experiment [1] is > 38 µM (not active); in [2], 21.9 µM (active). Besides, the AC50 in the experiment with INS1 is 1.83 µM (active).
On to `O=C(COC(=O)c1ccc(Br)o1)NCCCc1ccccc1`, for which the IC50 in the experiment “cells” is 38.5 µM (active).
With `Cc1sc2ncnc(SCC(=O)Nc3ncccc3O)c2c1C`, the IC50 in experiment [3] is 5.35 µM (active).
`O=C(OCC(=O)N1CCCC1)c1cc(Br)ccc1Cl`: in “cells”, the IC50 was 22 µM (active).
With `CCC1CCc2sc(C(=O)NNC(=O)c3ccncc3)cc2C1` (stereo not given), in the experiment “cells”, the IC50 is 21.6 µM (active).
Regarding `CC(C)(C)C1CCC(OC(=O)C[N+]2(C)CCCCC2)CC1` (stereo not given), the EC50 in experiment [1] is > 38 µM (not active); in experiment [2] it was 18.1 µM (active).
As for `CCN(CC)c1cccc(OC2=NS(=O)(=O)c3ccccc32)c1`, the EC50 in experiment [1] is 5.06 µM (active); in experiment [2] it was > 150 µM (inactive).
Regarding `O=C(NCc1cccnc1)c1ccc(-c2cccc(Cl)c2Cl)o1`, the EC50 was > 38 µM (not active) in experiment [1], > 38 µM (inactive) in [2], 0.92 µM (active) in experiment [4] and > 60 µM (not active) in experiment [5].
For the compound `COc1ccccc1N1CCN(Cc2nc(N)nc(Nc3ccc(C)c(Cl)c3)n2)CC1`, the EC50 on Streptokinase A was > 150 µM (inconclusive); in the experiment on Streptococcus, 20.4 µM (active); in [7] it was 10.7 µM (active). The CC50 in experiment [6] is 19.6 µM (active).
For `Cc1cccc(NC(=O)CN2C(=O)S/C(=C\c3ccc(-c4cccc(C(=O)O)c4C)o3)C2=O)c1`, the IC50 in [3] was 3.95 µM (active).
For `Cc1cc(Cl)ccc1NNC(=O)c1snnc1C`, the EC50 in [1] was 1.59 µM (active); in [2], 16.8 µM (inconclusive).
As to `N=c1ccn(Cc2ccc(Cl)cc2Cl)cc1`, the AC50 with INS1 is 7.25 µM (active).
With `Cc1ccc(S(=O)(=O)NNC(=O)c2ccc(NC(=O)C3CC3)cc2)cc1`, the results for the EC50 in experiment [1] and in experiment [2] were 12.7 µM (active) and > 150 µM (inactive), respectively.
Consider `CSc1nc2ccc(NC(=O)C3CC(=O)N(Cc4ccccc4)C3)cc2s1` (stereo not given), for which, in “cells”, the IC50 is 11.4 µM (active).
Consider `Cc1ccc(-c2c(NCCc3ccccc3)c(=O)c2=O)cc1`, for which the IC50 in [3] was 9.66 µM (active).
Take `O=C(CCS(=O)(=O)c1ccc(Br)cc1)NCCc1ccccc1`: the IC50 in experiment [3] was 26.3 µM (active).
With `Cc1cccc(N2C(N)=NC(N)=NC23CCCCC3)c1`, the IC50 in experiment [8] was > 47.1 µM (inactive). The EC50 in [9] is > 53 µM (inactive).
Take `O=C(CN1CCN(S(=O)(=O)c2ccccc2)CC1)Nc1ccc2c(c1)CCC2`: the values for the EC50 in experiment [1] and in [2] were > 38 µM (not active) and > 150 µM (inactive), respectively.
On the same counts, the results for `CCOc1cc(S(=O)(=O)NCc2ccccc2)c(OCC)cc1-n1cnnn1` are 3.34 µM (active) and > 150 µM (inconclusive).
With `Cc1cc(C)cc(NC(=O)Cn2nnc(C(=O)NCc3ccc(F)cc3)c2N)c1`, in [8], the IC50 was > 47.1 µM (inactive). Also, the EC50 in experiment [9] was > 53 µM (inactive).
On the same counts, the results for `CCCNC(=O)C1CC(=O)N(c2ccc(OCC)cc2)C1` (stereo not given) are > 47.1 µM (inactive) and > 53 µM (inactive).
`CCO[C@@H]1OC(C(N)=O)=C[C@H](C(C)(C)C)[C@H]1CCCO`: the IC50 in experiment [8] was > 47.1 µM (inactive). Moreover, the EC50 in [9] was > 53 µM (inactive).
Regarding `COc1cc(C(=O)O)c2ccccc2n1`, the IC50 in experiment [8] was < 0.368 µM (active). Moreover, in experiment [9], the EC50 was > 53 µM (inactive).
Taken in the same sequence, the figures for `CC[C@]12c3[nH]c4ccc(OC)cc4c3CCN1C(=O)C(CC(=O)NCCCOC)C[C@@H]2C(=O)N1CCN(C(=O)c2ccco2)CC1` (stereo not given in full) were > 47.1 µM (inactive) and > 53 µM (inactive).
As to `O=C(N/N=C/C=C/c1ccco1)c1ccncc1`, the IC50 in the experiment “cells” was 1.31 µM (active).

The record behind these values is ChEMBL document CHEMBL1201862, “PubChem BioAssay data set” (2004).
